Experimental data as given in patent US20020128269A1, “Substituted heterocyclic compounds for treating multidrug resistance” (priority 2000, published 2002).

Test system: NIH-MDR1-G185 cells
Test: Fluorescent Substrate Accumulation Assay (BODIPY-FL Taxol accumulation)
Format: cell-based
Settings: fluorescence in NIH-MDR1-G185 cells in presence / absence of modulator; BODIPY-FL Taxol 500 nM, 40 min at 37° C; modulator final concentration of 10 microliters (so in the source)
Protocol: NIH-MDR1-G185 cells (obtained from M. Gottesman, NIH) were harvested and resuspended in RPMI-1640 containing L-glutamine, 10% Cosmic Calf Serum and penicillin-streptomycin. Cell suspension aliquots of 175 microliters (1×10^5 cells) were added to individual wells of a 96 well microtiter plate and preincubated for 15 min at 37° C with 20 microliters MDR modulator diluted in cell culture media to give a final concentration of 10 microliters. Control wells received no modulating agent. BODIPY-FL Taxol (Molecular Probes, Eugene, Oreg.) was added to each well in 10 microliter aliquots to give a final concentration of 500 nM and cells were incubated for 40 min at 37° C. Cells were centrifuged at 100× g for 5 min at 4° C. and the cell pellet washed with 200 microliters cold PBS to remove fluorescent medium from wells. Cells were centrifuged once more, media removed, and cells resuspended in 200 microliters cold PBS. Fluorescence accumulation was measured in a fluorescence plate reader fitted with an excitation filter of 485 nm and an emission filter of 538 nm. BODIPY-FL taxol accumulation in the cells was calculated as follows:
Accumulation Index=(fluorescence in NIH-MDR1-G185 cells in the presence of modulator )/(fluorescence in NIH-MDR1-G185 cells in absence of modulator)
Accumulation Index of various compounds prepared above was tested according to the method in Reference Example 3.

In the case of `O=C(NC(CCCc1ccccc1)CCCc1ccccc1)C1CN(C[C@@H](O)COc2cccc3ncccc23)CCN1C(=O)COCc1ccccc1` (stereo partly drawn) [Compound 38, 1-(Benzyloxyacetyl)-4-{1-[2-(R)-hydroxy-3-(quinolin-5-yloxy)-propyl]}-piperazine-2-carboxylic Acid [4-phenyl-1-(3-phenyl-propyl)-butyl]-amide], the “Accumulation Index” value was 5.
